Laboratory results taken from patent US3974140A, “Ureidoacetamido-penicillins” (Bayer Aktiengesellschaft, priority 1970, dated 1976).

Assays:
Experiment in all cases: MIC, liquid medium test tube series dilution test
[1] = test system: Staph. aureus 133; assay type: cell-based, Staphylococcus aureus; conditions: Staph. aureus 133, 24 hours, 37°C
Protocol: (§1) The chemotherapeutic activity of the new penicillins was tested in vivo and in vitro. The in vitro inhibition values (MIC = minimum inhibition concentration (see Tables 1 and 2) were determined in a liquid medium in the test tube series dilution test, with readings being taken after 24 hours' incubation at 37°C. The MIC is indicated by the non-turbid test tube in the dilution series. A complete medium of the following composition was used as the nutrient medium:
(§2) The figures quoted in the Examples for the effectiveness against certain bacteria (units/ml) are minimum inhibitory concentrations in the test tube series dilution test after 24 hours' incubation.

[2] = test system: Psdm. aerug. Bonn; assay type: cell-based, Pseudomonas aerug.; conditions: 24 hours, 37°C
Protocol: as §1, §2

[3] = test system: Psdm. aerug. Walter; assay type: cell-based, Pseudomonas aerug.; conditions: 24 hours, 37°C
Protocol: as §1, §2

[4] = test system: E. coli 183/58; assay type: cell-based; conditions: E. coli 183/58, 24 hours, 37°C
Protocol: as §1, §2

[5] = test system: Klebsiella K 10; assay type: cell-based; conditions: Klebsiella K 10, 24 hours, 37°C
Protocol: as §1, §2

[6] = test system: E. coli 14; assay type: cell-based; conditions: E. coli 14, 24 hours, 37°C
Protocol: as §1, §2

[7] = test system: Streptoc. faec. ATCC 9790; assay type: cell-based; conditions: Strep. faec. (Enterococcus) ATCC 9790, 24 hours, 37°C
Protocol: as §1, §2

[8] = test system: E. coli A 261; assay type: cell-based; conditions: E. coli A 261, 24 hours, 37°C
Protocol: as §1, §2

[9] = test system: Klebsiella 63; assay type: cell-based; conditions: Klebsiella 63, 24 hours, 37°C
Protocol: as §1, §2

[10] = test system: E. coli C 165; assay type: cell-based; conditions: E. coli C 165, 24 hours, 37°C
Protocol: as §1, §2

[11] = test system: Proteus vulg. 3400; assay type: cell-based, Proteus vulgaris; conditions: Proteus vulg. 3400, 24 hours, 37°C
Protocol: as §1, §2

[12] = test system: Proteus vulg. 1017; assay type: cell-based, Proteus vulgaris; conditions: Proteus vulg. 1017, 24 hours, 37°C
Protocol: as §1, §2

| Structure (SMILES) | MIC [1] | MIC [2] | MIC [3] | MIC [4] | MIC [5] | MIC [6] | MIC [7] | MIC [8] | MIC [9] | MIC [10] | MIC [11] | MIC [12] |
| --- | --- | --- | --- | --- | --- | --- | --- | --- | --- | --- | --- | --- |
| COC(=O)N(C)C(=O)NC(C(=O)N[C@@H]1C(=O)N2[C@@H]1SC(C)(C)[C@@H]2C(=O)O)c1ccc(OC)cc1 (stereo partly drawn) [Example 18, Sodium D,L-α-(3-methoxycarbonyl-3-methyl-ureido)-4-methoxybenzylpenicillin] | 0.8-4 units/ml | 100-500 units/ml | 100-500 units/ml | 20-100 units/ml | 20-100 units/ml | 4-20 units/ml | ~ 100 units/ml | > 500 units/ml | 20-100 units/ml | 20-100 units/ml | 100-500 units/ml | 100-500 units/ml |
| CN(C(=O)NC(C(=O)N[C@@H]1C(=O)N2[C@@H]1SC(C)(C)[C@@H]2C(=O)O)c1c(Cl)cccc1Cl)C(=O)c1ccccc1 (stereo partly drawn) [Example 31, Sodium α-(3-benzoyl-3-methyl-ureido)-2,6-dichlorobenzyl-penicillin] | 0.8-4 units/ml | approx. 500 units/ml | 100-500 units/ml | 20-100 units/ml | 100-500 units/ml | 20-100 units/ml | > 500 units/ml | > 500 units/ml | 100-500 units/ml | 100-500 units/ml | 100-500 units/ml | 100-500 units/ml |
| CN(C(=O)NC(C(=O)N[C@@H]1C(=O)N2[C@@H]1SC(C)(C)[C@@H]2C(=O)O)c1c(Cl)cccc1Cl)C(=O)c1ccccc1 (stereo partly drawn) [Example 32, Sodium α-(3-benzoyl-3-methyl-ureido)-2,6-dichlorobenzyl-penicillin] | ~0.8 units/ml | 100-500 units/ml | 100-500 units/ml | 20-100 units/ml | 100-500 units/ml | approx. 20 units/ml | 100-500 units/ml | > 500 units/ml | approx. 100 units/ml | 20-100 units/ml | 100-500 units/ml | approx. 100 units/ml |

Results, then the compound that gave them:

| MIC [1] | MIC [2] | MIC [3] | MIC [4] | MIC [5] | MIC [6] | MIC [7] | MIC [8] | MIC [9] | MIC [10] | MIC [11] | MIC [12] | Structure (SMILES) |
| --- | --- | --- | --- | --- | --- | --- | --- | --- | --- | --- | --- | --- |
| ~ 1.6 units/ml | 100 units/ml | 100 units/ml | 25 units/ml | 50 units/ml | 6.3 units/ml | 200 units/ml | > 400 units/ml | 100 units/ml | 25 units/ml | 50 units/ml | 100 units/ml | CN(C(=O)CCCCl)C(=O)N[C@@H](C(=O)N[C@@H]1C(=O)N2[C@@H]1SC(C)(C)[C@@H]2C(=O)O)c1ccccc1 [Example 24, Sodium D(-)-α-(3-γ-chlorobutyryl-3-methyl-ureido)-benzylpenicillin] |
| < 0.8 units/ml | 4-20 units/ml | approx. 20 units/ml | 4-20 units/ml | 20-100 units/ml | approx. 4 units/ml | 20-100 units/ml | 100-500 units/ml | 20-100 units/ml | 20-100 units/ml | 20-100 units/ml | 20-100 units/ml | CCOC(=O)N(C)C(=O)NC(C(=O)N[C@@H]1C(=O)N2[C@@H]1SC(C)(C)[C@@H]2C(=O)O)c1ccc(SC)cc1 (stereo partly drawn) [Example 35, Sodium α-(3-ethoxycarbonyl-3-methyl-ureido)-4-methylthiobenzylpenicillin] |
